Reference: US20240384268A1, “Oligonucleotides” (Hudson Institute of Medical Research, priority 2021, published 2024)
In the oligonucleotide strings, read from the 5' end, every base follows the letter of its sugar. An asterisk marks phosphorothioate; unmarked linkages are phosphodiester. Other units and linkages are bracketed, terminal groups are in braces. A string of capitals states the bases alone. e = 2'-O-(2-methoxyethyl) (MOE); d = 2'-deoxy (DNA); m = 2'-O-methyl

Assays:
human TLR9 = biological target: T1, human TLR9 (Homo sapiens, UniProt Q9NR96); test: HEK-TLR9 NF-κB-luciferase reporter, ODN2006 stimulation; format: cell-based; details: HEK-TLR9; 500 nM 2′OMe or PS oligos; 200 nM ODN2006
T1 construct: HA; host or cells: 293XL-hTLR9-HA (HEK293)
T1 sequence (Q9NR96 26-1032): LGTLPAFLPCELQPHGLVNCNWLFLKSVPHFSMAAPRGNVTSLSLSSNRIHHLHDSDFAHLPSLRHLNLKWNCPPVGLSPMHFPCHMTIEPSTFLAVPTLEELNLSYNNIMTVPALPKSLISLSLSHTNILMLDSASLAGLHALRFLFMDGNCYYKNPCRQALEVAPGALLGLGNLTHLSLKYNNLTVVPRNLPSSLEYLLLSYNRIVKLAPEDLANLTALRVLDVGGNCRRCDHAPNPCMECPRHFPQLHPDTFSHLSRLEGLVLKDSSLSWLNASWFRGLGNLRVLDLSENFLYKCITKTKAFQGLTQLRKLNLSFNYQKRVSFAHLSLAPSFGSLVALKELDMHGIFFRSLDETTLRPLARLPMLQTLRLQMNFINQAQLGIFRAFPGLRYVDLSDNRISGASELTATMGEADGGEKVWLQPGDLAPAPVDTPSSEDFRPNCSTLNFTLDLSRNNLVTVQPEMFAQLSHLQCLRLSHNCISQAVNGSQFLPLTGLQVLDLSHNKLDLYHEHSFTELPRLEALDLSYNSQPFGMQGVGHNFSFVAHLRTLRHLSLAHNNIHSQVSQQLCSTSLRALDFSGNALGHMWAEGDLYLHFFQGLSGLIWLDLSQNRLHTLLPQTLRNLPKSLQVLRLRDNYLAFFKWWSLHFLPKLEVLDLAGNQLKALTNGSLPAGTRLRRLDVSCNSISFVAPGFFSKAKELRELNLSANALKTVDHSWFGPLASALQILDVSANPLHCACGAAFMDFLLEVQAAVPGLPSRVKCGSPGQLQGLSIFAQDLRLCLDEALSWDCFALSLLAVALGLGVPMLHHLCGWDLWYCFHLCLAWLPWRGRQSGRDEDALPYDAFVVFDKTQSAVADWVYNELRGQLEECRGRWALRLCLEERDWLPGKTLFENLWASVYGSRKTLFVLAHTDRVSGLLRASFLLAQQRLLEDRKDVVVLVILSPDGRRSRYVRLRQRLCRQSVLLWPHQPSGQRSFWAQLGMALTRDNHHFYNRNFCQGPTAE
Protocol: In such examples, inhibition of TLR9 activity can be identified by observation of an overall decreased TLR9 response of the cell population, or a lower proportion of cells having TLR9-positive activity as compared to positive control condition in which cells are treated with TLR9 agonist in the absence of the oligonucleotide (or in the presence of an appropriate control inhibitory agent). In one example, HEK cells are transfected with TLR9 and a NF-κB reporter and incubated with an oligonucleotide and then stimulated with a TLR9 agonist. TLR9 activity can then be determined by a luciferase assay. TLR9 activity can also be analysed by measuring cytokine levels (e.g., IFN, IL-6, TNF and IL-12), for example by ELISA.
(§1) For cGAS stimulations, cells were treated for indicated duration with ASOs, prior to transfection with ISD70 (human cells) or ISD45 (mouse cells) (the ASOs were not washed off prior to ISD transfection unless otherwise indicated). The cGAS ligands ISD45 (Stetson and Medzhitov, 2006) and ISD70 (also known as VACV-70 (Unterholzner et al., 2010)) (Table 1) were resuspended as follows: 5 1d of sense and 5 μl of antisense strands at 10 μg/μl were added to 90 μl PBS under sterile conditions, heated at 75° C. for 30 min, prior to letting cool down at room temperature and aliquoting (stock at 1 μg/1 l). The ISDs were transfected at a concentration of […] at a ratio of 1 μg:1 μl with Lipofectamine 2000 in Opti-MEM (Thermo Fisher Scientific). HEK-TLR3, HEK-TLR7 and […] were treated with indicated concentration of ASOs for 20-50 min, prior to stimulation with poly(I:C) (Invivogen), R848 (Invivogen), Motolimod (MedChemExpress) and the Class B CpG oligonucleotides ODN 2006 (synthesised by IDT and resuspended in RNase-free TE buffer [Table 1]), respectively. The TLR2/1 agonist PAM3CSK4 (Invivogen), the TLR4 agonist lipopolysaccharide (Invivogen), the Class B CpG oligonucleotides ODN 1826 (synthesised by IDT and resuspended in RNase-free TE buffer), the mouse Sting agonist DMXAA (Cayman) and the human STING agonist (compound #3 from (Raanjulu et al., 2018), referred to as GSK herein—kind gift from Cancer Therapeutics CRC, Australia) were used at indicated concentrations. Aspirin (Sigma—A2093) was resuspended in pure medium to 10 mM, filter sterilised and added to the cells at 2 mM final. All ASOs were synthesised by Integrated DNA Technologies (IDT), and resuspended in RNase-free TE buffer, pH 8.0 (Thermo Fisher Scientific). Cell viability was assessed by adding 1× fresh resazurin solution to the wells (10λ solution made up with 7 mg resazurin [Sigma—R7017] dissolved in 3.5 ml PBS, sterile filtered at […]) for 4 h, prior to reading at with a Fluostar OPTIMA (BMG LABTECH) plate-reader (fluorescence: Excitation 535 nm, Emission 590); wells with medium only and 1× resazurin were used as blanks.
Following transfection, the cells were collected from the 6-wells and aliquoted into 96-wells, just before ASO and overnight TLR stimulation (as above described). Similarly, the LL171 cells expressing and ISRE-Luc reporter were treated overnight. The next day, the cells were lysed in 40 μl (for a 96-well plate) of 1× Glo Lysis buffer (Promega) for 10 min at room temperature. […] was then subjected to firefly luciferase assay using 40 μl of Luciferase Assay Reagent (Promega). Luminescence was quantified with a Fluostar OPTIMA (BMG LABTECH) luminometer.

human TLR7 = biological target: T2, human TLR7 (Homo sapiens, UniProt Q9NYK1); test: HEK-TLR7 NF-κB-luciferase reporter, R848 stimulation; format: cell-based; details: HEK-TLR7; for inhibition of R848 sensing by TLR7, short pre-treatment (in words): 100-500 nM oligo 20-50 min before R848 1 μg/ml; for inhibition of R848 sensing by TLR7, 6 h pre-treatment (in words): 400 nM 5-nt 2′OMe oligo 6 h before R848 1 μg/ml
T2 construct: HA; host or cells: 293XL-hTLR7-HA (HEK293)
T2 sequence (Q9NYK1 27-1049): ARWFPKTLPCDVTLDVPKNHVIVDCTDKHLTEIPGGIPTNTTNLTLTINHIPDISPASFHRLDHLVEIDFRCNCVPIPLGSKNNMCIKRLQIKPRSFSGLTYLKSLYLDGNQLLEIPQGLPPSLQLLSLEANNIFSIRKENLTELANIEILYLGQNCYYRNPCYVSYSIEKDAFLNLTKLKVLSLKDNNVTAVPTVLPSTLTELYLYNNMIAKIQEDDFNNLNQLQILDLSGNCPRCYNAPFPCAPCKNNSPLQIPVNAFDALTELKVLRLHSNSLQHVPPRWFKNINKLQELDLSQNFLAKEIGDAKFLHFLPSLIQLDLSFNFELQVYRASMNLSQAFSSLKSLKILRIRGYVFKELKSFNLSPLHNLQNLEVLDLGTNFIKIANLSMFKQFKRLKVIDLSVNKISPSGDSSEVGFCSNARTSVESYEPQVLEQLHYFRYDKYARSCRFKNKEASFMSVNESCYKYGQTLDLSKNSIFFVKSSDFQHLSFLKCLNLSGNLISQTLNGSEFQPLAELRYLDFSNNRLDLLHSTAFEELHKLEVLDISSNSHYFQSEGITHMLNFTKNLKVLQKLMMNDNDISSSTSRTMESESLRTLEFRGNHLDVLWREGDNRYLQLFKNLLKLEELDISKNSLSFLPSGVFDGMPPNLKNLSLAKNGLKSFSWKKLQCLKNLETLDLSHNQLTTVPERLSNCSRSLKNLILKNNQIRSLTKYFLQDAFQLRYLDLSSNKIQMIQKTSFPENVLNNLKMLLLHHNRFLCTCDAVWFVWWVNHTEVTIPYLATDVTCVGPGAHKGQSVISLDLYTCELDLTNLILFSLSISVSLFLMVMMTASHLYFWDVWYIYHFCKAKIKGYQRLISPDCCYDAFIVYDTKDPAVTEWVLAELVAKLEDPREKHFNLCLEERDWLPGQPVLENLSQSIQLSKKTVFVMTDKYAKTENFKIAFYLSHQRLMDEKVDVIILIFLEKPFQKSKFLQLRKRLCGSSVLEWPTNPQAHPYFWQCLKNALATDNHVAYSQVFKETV
Protocol: In such examples, inhibition of TLR7 activity can be identified by observation of an overall decreased TLR7 response of the cell population, or a lower proportion of cells having TLR7-positive activity as compared to positive control condition in which cells are treated with TLR7 agonist in the absence of the oligonucleotide (or in the presence of an appropriate control inhibitory agent). In one example, 293XLhTLR7 (referred to as HEK-TLR7) cells are transfected with pNF-κB-Luc4 reporter, incubated with an oligonucleotide, and then stimulated with R848. TLR7 activity can be determined by a luciferase assay, which measures activated NF-κB by luminescence. TLR7 activity can also be analysed by measuring cytokine levels, for example by ELISA. […] TLR7 activity may then be assessed by the gene or protein expression of TLR7-responsive genes, such as Tnfα and Oas3.
as §1
Following transfection, the cells were collected from the 6-wells and aliquoted into 96-wells, just before ASO and overnight TLR stimulation (as above described). Similarly, the LL171 cells expressing and ISRE-Luc reporter were treated overnight.

Substance | inhibition of TLR9 sensing of ODN2006 (in words) (human TLR9) | inhibition of R848 sensing by TLR7, short pre-treatment (in words) (human TLR7) | inhibition of R848 sensing by TLR7, 6 h pre-treatment (in words) (human TLR7)
mC*mA*mU*mU*mA*G*G*T*G*C*A*G*A*A*A*mU*mC*mU*mU*mC (mC*mA*mU*mU*mA*dG*dG*dT*dG*dC*dA*dG*dA*dA*dA*mU*mC*mU*mU*mC) [ASO8] | significantly inhibited TLR9 sensing of ODN2006 | – | –
mG*mG*mU*mG*mG*T*C*C*A*C*A*A*C*C*C*mC*mU*mU*mU*mC (mG*mG*mU*mG*mG*dT*dC*dC*dA*dC*dA*dA*dC*dC*dC*mC*mU*mU*mU*mC; antisense) [ASO7] | significantly inhibited TLR9 sensing of ODN2006 | – | –
mA*mC*mU*mU*mC*G*T*G*G*G*G*T*C*C*T*mU*mU*mU*mC*mA (ACUUCGTGGGGTCCTUUUCA; antisense; sugars from the 5' end m5 d10 m5, all phosphorothioate, methylation of C not given here) [[HPRT]661] | significantly limited inhibition | – | –
/52MOErT/*/i2MOErG/*/i2MOErT/*/i2MOErC/*/i2MOErC/*T*T*G*C*A*C*G*T*G*C*/i2MOErC/*/i2MOErT/*/i2MOErA/*/i2MOErA/*/32MOErG/ (TGTCCTTGCACGTGCCTAAG; sugars from the 5' end e5 d10 e5, all phosphorothioate, methylation of C not given here) [F5-Mut] | – | significantly less inhibitory | –
mG*mG*mA*mG*mC*T*T*C*G*A*G*G*C*C*C*mC*mA*mG*mG*mC (mG*mG*mA*mG*mC*dT*dT*dC*dG*dA*dG*dG*dC*dC*dC*mC*mA*mG*mG*mC; antisense) [ASO6] | significantly inhibited TLR9 sensing of ODN2006 | – | –
mC*mA*mC*mU*mU*C*G*T*G*G*G*G*T*C*C*mU*mU*mU*mU*mC (CACUUCGTGGGGTCCUUUUC; antisense; sugars from the 5' end m5 d10 m5, all phosphorothioate, methylation of C not given here) [[HPRT]662] | strongest inhibition of this series of ASOs | – | –
mG*mG*mU*mA*mU [ShortMut1] | – | no inhibition was observed | sufficient to inhibit R848 sensing
mC*mA*mA*mC*mA*C*T*T*C*G*T*G*G*G*G*mU*mC*mC*mU*mU (CAACACTTCGTGGGGUCCUU; antisense; sugars from the 5' end m5 d10 m5, all phosphorothioate, methylation of C not given here) [[HPRT]665] | only poorly inhibitory | – | –
mC*mC*mA*mA*mC*A*C*T*T*C*G*T*G*G*G*mG*mU*mC*mC*mU (CCAACACTTCGTGGGGUCCU; antisense; sugars from the 5' end m5 d10 m5, all phosphorothioate, methylation of C not given here) [[HPRT]666] | strongly inhibited TLR9 | – | –
mC*mG*mU*mU*mU [ShortMut1v3] | – | – | failed to do so
mU*mU*mC*mU*mG*G*G*G*A*C*T*T*C*C*A*mG*mU*mU*mU*mA (mU*mU*mC*mU*mG*dG*dG*dG*dA*dC*dT*dT*dC*dC*dA*mG*mU*mU*mU*mA; antisense) [ASO9] | significantly inhibited TLR9 sensing of ODN2006 | – | –
mU*mC*mC*mG*mG*G*T*C*G*T*A*G*T*T*G*mC*mU*mU*mC*mC (UCCGGGTCGTAGTTGCUUCC; antisense; sugars from the 5' end m5 d10 m5, all phosphorothioate, methylation of C not given here) [ASO11Mut2] | conferred significant TLR9 inhibition | – | –
